Data from the supplement of paper PMC10307832.

compound: CC1=CC(=C(N1C2=CC=C(C=C2)Cl)C)C(=O)CN3CCCCC3 [IU1-47] + NC(=O)Nc1cc(-c2cccc(F)c2)sc1C(=O)N[C@H]1CCCNC1 [AZD7762] (partner 0.2 µM); assay: relative viability (nuclei count vs DMSO), 5 days (fraction); higher = more cells survive; settings: first compound 0.08 µM
Outline: (§1)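 Lung cancer cell lines were pin-tool dosed in 1536-well plates on the day after seeding, with either a lone drug or a fixed anchor-drug dose plus five library-drug doses (not always all listed) in √10 steps. Nuclei were counted on 4× images after 5 days. Relative viability is the ratio of treated-well to vehicle-well nuclei counts, with each value a median of duplicate plates.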

Cell Line | relative viability
BEN | 0.677
HARA | 0.394
HCC-78 | 0.606
NCI-H322M | 0.671
LCLC-97TM1 | 0.31
A-427 | 0.747
NCI-H441 | 1.38
NCI-H1734 | 0.639
NCI-H460 | 0.639
NCI-H2347 | 0.78
NCI-H1395 | 0.422
201T | 0.696
NCI-H1915 | 0.712
HCC-827 | 0.174
LXF-289 | 1.25
NCI-H23 | 0.229

Cell Line | relative viability
NCI-H647 | 0.551
CAL-12T | 0.622
NCI-H1651 | 0.479
EPLC-272H | 0.232
NCI-H1355 | 0.798
NCI-H3122 | 1.08
NCI-H1437 | 1.14
NCI-H1755 | 0.429
HCC-15 | 1.15
NCI-H1793 | 0.716
PC-14 | 0.404
EKVX | 0.894
LC-2-ad | 0.851
NCI-H1944 | 0.794
NCI-H1975 | 0.698

same assay, conditions: first compound 0.253 µM

Cell Line | relative viability
NCI-H2405 | 0.804
HOP-62 | 0.712
LU99A | 0.412
BEN | 0.638
HCC-78 | 0.546
NCI-H322M | 0.696
LCLC-97TM1 | 0.286
A-427 | 0.908
NCI-H441 | 1.36
NCI-H1734 | 0.481
NCI-H460 | 0.635
NCI-H2347 | 0.845
NCI-H1395 | 0.336
201T | 0.592
NCI-H1915 | 0.71
HCC-827 | 0.213

Cell Line | relative viability
LXF-289 | 1.14
NCI-H647 | 0.392
CAL-12T | 0.695
NCI-H1651 | 0.498
EPLC-272H | 0.205
NCI-H1355 | 0.957
NCI-H3122 | 1.08
NCI-H1437 | 1.11
NCI-H1755 | 0.557
HCC-15 | 1.5
PC-14 | 0.345
EKVX | 0.866
LC-2-ad | 0.84
NCI-H1944 | 0.612
NCI-H1975 | 0.766

same assay, conditions: first compound 0.8 µM

Cell Line | relative viability
NCI-H2405 | 0.853
HOP-62 | 0.619
LU99A | 0.401
BEN | 0.761
HARA | 0.359
HCC-78 | 0.638
NCI-H322M | 0.54
LCLC-97TM1 | 0.294
A-427 | 0.596
NCI-H441 | 1.19
NCI-H1734 | 0.487
NCI-H460 | 0.686
NCI-H2347 | 0.865
NCI-H1395 | 0.414
201T | 0.633
NCI-H1915 | 0.671
HCC-827 | 0.227

Cell Line | relative viability
LXF-289 | 1.21
NCI-H23 | 0.227
NCI-H647 | 0.486
CAL-12T | 0.695
NCI-H1651 | 0.529
EPLC-272H | 0.226
NCI-H1355 | 0.844
NCI-H3122 | 1.02
NCI-H1437 | 1.12
NCI-H1755 | 0.57
HCC-15 | 1.4
NCI-H1793 | 0.516
PC-14 | 0.377
EKVX | 0.725
LC-2-ad | 0.866
NCI-H1944 | 0.601
NCI-H1975 | 0.728

same assay, conditions: first compound 2.53 µM

Cell Line | relative viability
NCI-H2405 | 0.815
HOP-62 | 0.493
LU99A | 0.33
BEN | 0.535
HARA | 0.176
HCC-78 | 0.654
NCI-H322M | 0.615
LCLC-97TM1 | 0.0924
A-427 | 0.82
NCI-H441 | 1.18
NCI-H1734 | 0.383
NCI-H460 | 0.754
NCI-H2347 | 0.79
NCI-H1395 | 0.384
201T | 0.504
NCI-H1915 | 0.655
HCC-827 | 0.202
LXF-289 | 1.07
NCI-H23 | 0.18
NCI-H647 | 0.386
CAL-12T | 0.601
NCI-H1651 | 0.316
NCI-H3122 | 1.02
NCI-H1437 | 1.05
NCI-H1755 | 0.443
NCI-H1793 | 0.319
PC-14 | 0.314
NCI-H1944 | 0.445
NCI-H1975 | 0.797

same assay, conditions: first compound 8 µM

Cell Line | relative viability
NCI-H2405 | 0.739
HOP-62 | 0.608
LU99A | 0.292
BEN | 0.739
HARA | 0.273
HCC-78 | 0.609
NCI-H322M | 0.488
LCLC-97TM1 | 0.245
A-427 | 0.562
NCI-H441 | 1.21
NCI-H1734 | 0.517
NCI-H460 | 0.628
NCI-H2347 | 0.621
NCI-H1395 | 0.392
201T | 0.78
NCI-H1915 | 0.703
HCC-827 | 0.197

Cell Line | relative viability
LXF-289 | 1.02
NCI-H23 | 0.243
NCI-H647 | 0.29
CAL-12T | 0.629
NCI-H1651 | 0.418
EPLC-272H | 0.217
NCI-H1355 | 0.584
NCI-H3122 | 0.88
NCI-H1437 | 1.1
NCI-H1755 | 0.377
HCC-15 | 1.23
NCI-H1793 | 0.338
PC-14 | 0.275
EKVX | 0.756
LC-2-ad | 0.857
NCI-H1944 | 0.464
NCI-H1975 | 0.756

compound: Cc1nc(C(=O)NCC(=O)O)c(O)c2ccc(Oc3ccccc3)cc12 [FG-4592] + Cc1nc(NC(=O)N2CCC[C@H]2C(N)=O)sc1-c1ccnc(C(C)(C)C(F)(F)F)c1 [Alpelisib] (partner 2 µM); assay: as above; settings: first compound 0.08 µM
Outline: as §1

Cell Line | relative viability
HOP-62 | 0.998
LU99A | 0.497
BEN | 0.831
HARA | 0.805
HCC-78 | 0.379
NCI-H322M | 0.194
LCLC-97TM1 | 0.25
A-427 | 1.04
NCI-H441 | 0.849
NCI-H1734 | 0.645
NCI-H460 | 0.549
NCI-H2347 | 0.988
NCI-H1395 | 0.973
201T | 0.96
NCI-H1915 | 1.04
HCC-827 | 0.948
LXF-289 | 0.974

Cell Line | relative viability
NCI-H23 | 0.663
NCI-H647 | 1.24
CAL-12T | 1.13
NCI-H1651 | 0.925
EPLC-272H | 0.834
NCI-H1355 | 0.797
NCI-H3122 | 0.861
NCI-H1437 | 0.997
NCI-H1755 | 0.906
HCC-15 | 0.883
NCI-H1793 | 0.772
PC-14 | 0.979
EKVX | 0.786
LC-2-ad | 0.799
NCI-H1944 | 0.794
NCI-H1975 | 0.679

same assay, conditions: first compound 0.253 µM

Cell Line | relative viability
NCI-H2405 | 0.399
HOP-62 | 0.935
LU99A | 0.492
BEN | 0.807
HARA | 0.728
HCC-78 | 0.339
NCI-H322M | 0.797
LCLC-97TM1 | 0.214
A-427 | 1.07
NCI-H441 | 0.704
NCI-H1734 | 0.685
NCI-H460 | 0.46
NCI-H1395 | 0.914
201T | 0.96
NCI-H1915 | 1.02
HCC-827 | 0.945
LXF-289 | 0.963

Cell Line | relative viability
NCI-H23 | 0.678
NCI-H647 | 1.07
CAL-12T | 1.23
NCI-H1651 | 0.888
EPLC-272H | 0.799
NCI-H1355 | 0.788
NCI-H3122 | 0.764
NCI-H1437 | 0.958
NCI-H1755 | 0.888
HCC-15 | 0.856
NCI-H1793 | 0.678
PC-14 | 1
EKVX | 0.858
LC-2-ad | 0.842
NCI-H1944 | 0.801
NCI-H1975 | 0.555

same assay, conditions: first compound 0.8 µM

Cell Line | relative viability
NCI-H2405 | 0.655
HOP-62 | 0.771
LU99A | 0.402
BEN | 0.753
HCC-78 | 0.223
NCI-H322M | 0.595
LCLC-97TM1 | 0.167
A-427 | 1.04
NCI-H441 | 0.853
NCI-H1734 | 0.681
NCI-H460 | 0.571
NCI-H2347 | 0.85
201T | 0.879
NCI-H1915 | 1.05
HCC-827 | 0.952
LXF-289 | 1.06
NCI-H23 | 0.772
NCI-H647 | 1.17
CAL-12T | 1.55
NCI-H1651 | 1.03
EPLC-272H | 0.643
NCI-H3122 | 0.665
NCI-H1437 | 1.01
NCI-H1755 | 0.906
HCC-15 | 0.913
PC-14 | 0.988
EKVX | 0.932
LC-2-ad | 0.865
NCI-H1944 | 0.692
NCI-H1975 | 0.672

same assay, conditions: first compound 2.53 µM

Cell Line | relative viability
NCI-H2405 | 0.638
HOP-62 | 1.03
LU99A | 0.579
BEN | 0.965
HARA | 0.945
HCC-78 | 0.287
NCI-H322M | 0.941
A-427 | 1.13
NCI-H441 | 0.878
NCI-H1734 | 0.686
NCI-H460 | 0.517
NCI-H2347 | 1.16
NCI-H1395 | 0.896
201T | 1.02
NCI-H1915 | 1.01
HCC-827 | 0.951
LXF-289 | 1.05

Cell Line | relative viability
NCI-H23 | 0.679
NCI-H647 | 1.24
CAL-12T | 1.13
NCI-H1651 | 0.95
EPLC-272H | 0.946
NCI-H1355 | 0.869
NCI-H3122 | 0.781
NCI-H1437 | 1.05
NCI-H1755 | 0.945
HCC-15 | 0.871
NCI-H1793 | 0.719
PC-14 | 0.855
EKVX | 0.79
LC-2-ad | 0.943
NCI-H1944 | 0.853
NCI-H1975 | 0.655

same assay, conditions: first compound 8 µM

Cell Line | relative viability
NCI-H2405 | 0.715
HOP-62 | 0.929
LU99A | 0.532
BEN | 0.701
HARA | 0.827
HCC-78 | 0.308
NCI-H322M | 0.852
LCLC-97TM1 | 0.29
A-427 | 1.05
NCI-H441 | 0.519
NCI-H1734 | 0.731
NCI-H460 | 0.444
NCI-H2347 | 1.11
NCI-H1395 | 0.693
201T | 1.03
NCI-H1915 | 1.05
HCC-827 | 0.992

Cell Line | relative viability
LXF-289 | 1.09
NCI-H23 | 0.673
NCI-H647 | 0.796
CAL-12T | 0.971
NCI-H1651 | 0.816
EPLC-272H | 0.887
NCI-H1355 | 0.743
NCI-H3122 | 0.733
NCI-H1437 | 0.706
NCI-H1755 | 0.878
HCC-15 | 0.915
NCI-H1793 | 0.557
PC-14 | 0.956
EKVX | 0.932
LC-2-ad | 0.926
NCI-H1944 | 0.836
NCI-H1975 | 0.56
